# Entries after “also recorded” stand apart in the source; their conditions may differ. Where two headings read alike, the source gives them in different places.
# What was measured:
# [1] = target: T1, mushroom tyrosinase (mTyr) (Agaricus bisporus, UniProt C7FF04); assay: Inhibition reversibility and type assay (Lineweaver–Burk kinetics) on mTyr; format: biochemical; conditions: for Inhibition type: Lineweaver–Burk plots, 300 U/mL mTyr, varying L-tyrosine
# Protocol: The methodology for evaluating the reversibility of inhibition and the inhibition type of the compounds on mTyr closely parallels the procedure outlined in the inhibitory activity assay of compounds on mTyr.
# For the evaluation of inhibition reversibility, a constant concentration of 1 mM L-tyrosine was employed. […] The absorption was measured to determine the initial enzymatic reaction rate corresponding to each enzyme concentration. Specifically, the initial enzymatic reaction rate was calculated by subtracting the initial absorbance from the absorbance recorded at a specific time and then dividing the result by the corresponding time interval.[32] Subsequently, the collected data were plotted on a scatter plot, with the initial enzymatic reaction rate represented on the Y-axis and the enzyme concentration on the X-axis. In cases of reversibility, this will result in fitting a set of straight lines passing through the origin. Conversely, when reversibility was absent, a set of parallel lines emerged as the fit.[33]
# In order to investigate the inhibition type, a final concentration of 300 U per mL mTyr was employed, accompanied by varying concentrations of L-tyrosine. The enzymatic reaction rate was evaluated for different concentrations of compounds 3a–3e. Subsequently, the ΔOD475 values were plotted against the L-tyrosine concentration using the Lineweaver–Burk equation, allowing for the creation of double reciprocal plots.
# [2] = system: human immortalized keratinocyte (HaCaT) non-tumor cells; assay: CCK-8 cell proliferation and cytotoxicity assay, HaCaT cells; format: cell-based
# Protocol: (§1) Cell proliferation and cytotoxicity assays were performed using the CCK-8 on Human Epidermal Melanoma A375 and HaCaT cells. Initially, the cells were seeded in 96-well plates at a density of 4 × 10^4 cells per well and incubated for 24 hours at 37 °C with 5% CO2 in a humidified incubator. Each treatment was conducted in six duplicate wells. Various concentrations of the tested compounds were added to the wells, and the cells were further incubated for 72 hours. After the incubation period, CCK-8 solution was added to each well and incubated for an additional 2 hours. The absorbance of each well at 450 nm was measured using an absorbance microplate reader (BioTek ELx800, USA). Negative controls with cells treated with distilled water and positive controls with cells were treated with 10 μg mL^−1 taxol was included in the assay. The percentage of cell growth inhibition was calculated using eqn (2).2 [drawing 1] where G1 represents the absorbance of a mixture containing cells, medium, and CCK8, G2 represents the absorbance of absorbance of a mixture containing cells, medium, CCK8, and the test compound; G3 represents a mixture containing medium and CCK8.
# (§2) Cell growth and morphology were observed using an inverted microscope (Olympus IX51, Japan). The experiments were conducted in triplicate to ensure accuracy and consistency of results.
# [3] = system: human epidermal melanoma A375 cells; assay: CCK-8 cell proliferation and cytotoxicity assay, A375 cells; format: cell-based
# Protocol: as §1, §2
# [4] = target: T1, mushroom tyrosinase (mTyr); assay: Inhibitory activity assay on mTyr with L-tyrosine as substrate; format: biochemical; conditions: for Concentration at maximum inhibition rate: second figure of the cell rate/concentration
# Protocol: The synthesized hydroquinone ester derivatives were dissolved in 3% dimethyl sulfoxide (DMSO) solution and then diluted with phosphate-buffered solution (PBS, pH 6.86, 100 mM) to obtain different concentrations. […] The plate was incubated at 37 °C for 30 minutes, after which 20 μL of L-tyrosine solution (1 mM) was added and mixed. The absorbance at a wavelength of 475 nm was measured using a SpectraMax 190 microplate reader (MolecularDevices, USA) continuously for 30 minutes. PBS was used as a blank control, and kojic acid was used as a positive control.
# [5] = target: T1, mushroom tyrosinase (mTyr); conditions: read-out: IC50 for inhibiting mTyr activity; literature value; ref [15]; cited from earlier work
# [6] = substrate L-tyrosine, read-out: IC50 for inhibiting mTyr activity
# T1 sequence (C7FF04 1-392): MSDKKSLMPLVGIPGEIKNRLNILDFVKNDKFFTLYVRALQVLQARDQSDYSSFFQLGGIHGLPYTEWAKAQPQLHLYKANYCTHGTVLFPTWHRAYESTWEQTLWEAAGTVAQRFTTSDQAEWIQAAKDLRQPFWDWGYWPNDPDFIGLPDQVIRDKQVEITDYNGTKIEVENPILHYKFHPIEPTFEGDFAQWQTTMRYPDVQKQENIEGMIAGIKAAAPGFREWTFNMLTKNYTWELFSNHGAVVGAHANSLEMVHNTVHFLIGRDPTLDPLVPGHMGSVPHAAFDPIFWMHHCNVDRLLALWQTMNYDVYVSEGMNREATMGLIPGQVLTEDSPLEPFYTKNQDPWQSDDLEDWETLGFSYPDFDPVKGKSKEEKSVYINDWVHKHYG
Structure (SMILES),Inhibition type [1],melting point,Concentration at maximum inhibition rate [4],"IC50 [4, 6]",maximum reaction rate (Vm) of mTyr ([1]; compound concentration 5 μM),maximum reaction rate (Vm) of mTyr ([1]; compound concentration 10 μM),maximum reaction rate (Vm) of mTyr ([1]; compound concentration 20 μM),other results
"O=C(C=Cc1ccccc1)Oc1ccc(O)cc1 [Compound 3b, 4-hydroxyphenyl cinnamate]",Mix-noncompetitive; also recorded: mixed-type inhibition,171 to 173 °C,2.5 µM,0.18 ± 0.06 µM,–,–,–,"maximum reaction rate (Vm) of mTyr ([1]; compound concentration 1 μM): 0.7572 ×103, min-1; maximum reaction rate (Vm) of mTyr ([1]; compound concentration 2 μM): 0.3461 ×103, min-1; maximum reaction rate (Vm) of mTyr ([1]; compound concentration 4 μM): 0.2145 ×103, min-1; Ki ([1]; read-out: free enzyme inhibition constant (KI)): 1.88 µM; mTyr–substrate complex inhibition constant (KIS) ([1]; secondary plots, mixed-type inhibition): 0.3395 µM; inhibition at 50 µM ([2]; Homo sapiens, HaCaT, 50 μM, read-out: inhibition rate on HaCaT cells): 9.09%; IC50 ([2]; Homo sapiens, HaCaT, 72 hours, CCK-8, read-out: IC50 against HaCaT cells): 169 µM; inhibition rate on HaCaT cells ([2]; concentration range 3.125–25 μM): below 5%; inhibition at 50 µM ([3]; A-375, 50 μM, read-out: inhibition rate on A375 cells): 60.9%; IC50 ([3]; A-375, 72 hours, CCK-8, read-out: IC50 against A375 cells): 40.8 µM"
"O=C(Oc1ccc(O)cc1)c1ccccc1 [Compound 3d, 4-hydroxyphenyl benzoate]",competitive inhibition; also recorded: competitive inhibitors,150 to 152 °C,75 µM,20.5 ± 1.79 µM,"0.9216 ×103, min-1","0.9208 ×103, min-1","0.9209 ×103, min-1",–
"O=C(O)/C=C/c1ccccc1 [Cinnamic acid, cinnamic acid]",–,–,–,–,–,–,–,IC50 [5]: 201 ± 5.3 µM
"O=C(CCc1ccccc1)Oc1ccc(OC(=O)CCc2ccccc2)cc1 [Compound 3g, 1,4-phenylene bis(3-phenylpropanoate)]",–,128 to 130 °C,–,–,–,–,–,–
"O=C(Oc1ccc(OC(=O)c2ccc(F)cc2)cc1)c1ccc(F)cc1 [Compound 3f, 1,4-phenylene bis(4-fluorobenzoate)]",–,196 to 198 °C,100 µM,54.2 ± 8.65 µM,–,–,–,–
"O=C(Oc1ccc(O)cc1)c1ccc(F)cc1 [Compound 3e, 4-hydroxyphenyl 4-fluorobenzoate]",competitive inhibition; also recorded: competitive inhibitors,142 to 144 °C,100 µM,24.7 ± 3.04 µM,"1.474 ×103, min-1","1.470 ×103, min-1","1.468 ×103, min-1",–
"O=C(/C=C/c1ccc(O)cc1)Oc1ccc(O)cc1 [Compound 3a, 4-hydroxyphenyl (2E)-3-(4-hydroxyphenyl) prop-2-enoate]",Noncompetitive; also recorded: non-competitive inhibition; also recorded: non-competitive inhibitors,217 to 220 °C,10 µM,1.75 ± 0.02 µM,"0.4272 ×103, min-1","0.2843 ×103, min-1","0.1836 ×103, min-1",–
"Oc1ccc(O)cc1 [Hydroquinone, hydroquinone]",–,–,75 µM,22.78 ± 0.16 µM,–,–,–,–
"O=C(CCc1ccccc1)Oc1ccc(O)cc1 [Compound 3c, 4-hydroxyphenyl 3-phenylpropanoate]",Noncompetitive; also recorded: non-competitive inhibition; also recorded: non-competitive inhibitors,149 to 151 °C,50 µM,7.46 ± 0.9 µM,"0.6327 ×103, min-1","0.3424 ×103, min-1","0.2581 ×103, min-1",–
"O=C(O)C=Cc1ccc(O)cc1 [4-Hydroxycinnamic acid, 4-hydroxycinnamic acid, reference compound]",–,–,50 µM,–,–,–,–,IC50 [4]: 16.4 ± 5.42 µM

# — paper PMC10870825, “Design, synthesis, and inhibitory activity of hydroquinone ester derivatives against mushroom tyrosinase” (RSC Advances, 2024)
